Measured values as given in patent publication US7700797B2, “Use of hydrolysis resistant organomodified silylated surfactants” (Momentive Performance Materials Inc., priority 2006, dated 2010).

Columns and labels:
[1] = Surface tension, Kruss surface tensiometer; type: physicochemical; settings: 0.1 wt % in 0.005M NaCl water
Method: Surface tension was measured using a Kruss surface tensiometer, with a sand blasted platinum blade as the sensor. Solutions of the various components were prepared at 0.1 wt % in 0.005M NaCl water (deionized), as an equilibrium aid.

[2] = Spreading of 10 μL droplet on polystyrene Petri dishes; type: physicochemical; settings: 30 seconds
Method: Spreading was determined by applying a 10 μL droplet, of surfactant solution to polystyrene Petri dishes (Fisher Scientific) and measuring the spread diameter (mm) after 30 seconds, at a relative humidity between 50 and 70% (at 22 to 25° C.). The solution was applied with an automatic pipette to provide droplets of reproducible volume. Deionized water that was further purified with a Millipore filtration system was used to prepare the surfactant solutions.

Row | Molecule | Surface Tension [1] [mN/m] | Spread Diameter ([2]; 0.1% surfactant) [mm] | Spread Diameter ([2]; 0.5% surfactant) [mm] | Spread Diameter ([2]; 0.05% surfactant) [mm] | Spread Diameter ([2]; 0.3% surfactant) [mm]
1 | C[Si](C)(C)CC[Si](C)(C)CCCOCCOCCOCCOCCOCCOCCOCCOCCOCCOCCOCCO [Product 9] | 26.7 | 7 | 7 |  | 
2 | C[Si](C)(C)CC[Si](C)(C)CCCOCCOCCOCCOCCO [Product 7] | 22.7 | 42 | 49 | 30 | 48
3 | Octylphenolethoxylate [OPE] | 31.8 | 9 | 10 |  | 
4 | C[Si](C)(C)C[Si](C)(C)CCCOCCOCCOCCOCCOCCOCCOCCOCCOCCOCCOCCO [Product 8] | 27.7 | 7 | 7 |  | 
5 | C[Si](C)(C)C[Si](C)(C)CCCOCCOCCOCCOCCO [Product 6] | 22.5 | 45 | 47 | 40 | 53
